Consider two compounds from patent US6867305B2, “Synthesis of epothilones, intermediates thereto and analogues thereof” (Sloan-Kettering Institute for Cancer Research, priority 1996, dated 2005).

For series [1], the system named is B16 Melanoma. It is filed as in vivo, murine. The following applies: mouse, in vivo.
Series [2] is described as follows: Stability in plasma in vitro (HPLC). It is filed as in vitro ADME, dog. The following applies: 5 μg/mL, 37 degree. As for the experimental part: Stability of dEpoF in animal plasmas. A HPLC method is set up using a NovaPak C 18, 3.9×300 mm column with a mobile phase of 50% acetonitrile in 50 mM potassium dihydrogen phosphate with 0.01% triethylamine at a flow rate of 0.8 ml/min. dEpoF is monitored at a wavelength of 260 nm and has a retention time of about 10 min. The plasma stability is performed with mouse plasma and dog plasma purchased from Pel-Freeze and human plasma from the blood center in MSKCC. A small amount of dEpoF was dissolved in 50% methanol/water at a concentration of 500 μg/mL. An aliquot of 20 μL is then spiked to 2 mL of plasma to a final plasma concentration of 5 μg/mL. The plasma samples were kept at 37 degree. At the time point, 200 μL of the plasma was removed and added to 400 μL of methanol to precipitate the plasma protein. Twenty μL of the supernatant was analyzed by HPLC without further modification. dEpoF disappears rapidly with half life about one hour in the commercial frozen mouse plasma alone, but stable in dog and human plasma.

In the case of `C/C1=C/C[C@@H](/C(C)=C/c2csc(C)n2)OC(=O)C[C@H](O)C(C)(C)C(=O)[C@H](C)[C@@H](O)[C@@H](C)CCC1` [dEpoB, 12,13-desoxyepothilone B], the “Therapeutic Effect Rank Order” value in series [1] is given as “dEpoB>Taxol>>EpoB”.
For `C/C1=C/C[C@@H](/C(C)=C/c2csc(CO)n2)OC(=O)C[C@H](O)C(C)(C)C(=O)[C@H](C)[C@@H](O)[C@@H](C)CCC1` [dEpoF, 12,13-Desoxyepothilone F], in series [2], the “stability in dog plasma” value is reported as “stable”.
